{
  "source": "patent US11292773B2",
  "about": "“Small molecule inhibitors of BCL-2-associated death promoter (BAD) phosphorylation” (NATIONAL UNIVERSITY OF SINGAPORE, priority 2017, dated 2022)",
  "key": {"[1]": {"system": "MCF7, BT474, Caov-3, Ishikawa, AsPC-1 and DLD-1 cells", "assay": "NPB exposure with or without siRNA-mediated depletion of BAD (western blot, ApoTox-Glo)", "format": "cell-based, human", "settings": "5 μM NPB", "method": "(A) WB analysis was used to assess the levels of pBAD (Ser99) activity and BAD protein in MCF7, BT474, Caov-3, Ishikawa, AsPC-1, and DLD-1 cells after treatment with 5 μM NPB. Depletion of BAD expression was achieved using transient-transfection of small interfering (si)-RNA directed to the BAD transcript. Soluble whole cell extracts were run on an SDS-PAGE and immunoblotted as described in materials and methods. β-ACTIN was used as input control. Effects of NPB (5 μM) in MCF7, BT474, Caov-3, Ishikawa, AsPC-1, and DLD-1 cells. (B) Cell viability and (C) caspase 3/7 activities were evaluated using the ApoTox-GIo™ Triplex Assay Kit. All assays performed as described in methodology. Statistical significance was assessed by an unpaired two-tailed Student's t-test (P<0.05 was considered as significant) using GraphPad Prism5. The column represents mean of triplicate determinations; bars, ±SD. **P<0.001, *P<0.05. Note RFU, relative fluorescence unit; RLU, relative luminescence unit.\nTo confirm the functional specificity of NPB directed to the BAD protein, we further examined the effect of NPB exposure after siRNA-mediated depletion of BAD expression in 6 carcinoma cell lines (MCF7, BT474, Caov-3, Ishikawa, AsPC-1 and DLD-1). […] As described above, NPB treatment of the control transfected carcinoma cell lines decreased BAD phosphorylation (Ser99) compared to vehicle-treated cells. Concomitantly, exposure of the same carcinoma cell lines to NPB decreased cell viability and increased caspase 3/7 activity compared to vehicle-exposed cells."}, "[2]": {"biological_target": "T1, hBAD phosphorylation (Ser75, Ser99) (Homo sapiens, UniProt Q92934)", "T1 construct": "endogenous in cells; host or cells: MCF7 (A6); 25 carcinoma cell lines of seven cancer types (A7)", "T1 sequence (Q92934 1-168)": "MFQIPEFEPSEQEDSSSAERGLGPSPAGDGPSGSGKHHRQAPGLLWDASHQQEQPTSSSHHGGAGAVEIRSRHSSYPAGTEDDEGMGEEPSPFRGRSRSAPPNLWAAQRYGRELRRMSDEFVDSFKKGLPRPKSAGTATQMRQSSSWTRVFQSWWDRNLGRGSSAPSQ", "assay": "Western blot of hBAD Ser75 and Ser99 phosphorylation in 25 carcinoma cell lines", "format": "cell-based", "settings": "all tested carcinoma cell lines, NPB 5 μM", "method": "(§1) (A) WB analysis was used to assess the levels of phosphorylated human BAD (at Ser75 and Ser99) and BAD protein in the range of carcinoma cell lines, including mammary, ovarian, pancreatic, endometrial, hepatocellular, colon and prostate cancer after treatment with NPB (5 μM). Total BAD was used as an input control for cell lysate. (B) WB analysis was used to assess the levels of pBAD (Ser99) and pAKT (Ser473), AKT and BAD in MCF7, Caov-3, Ishikawa, and AsPC-1 cells. 5 μM each of AKT inhibitor (IV) and NPB was used to treat cells. Depletion of AKT expression was achieved using transient-transfection of short hairpin (sh)-RNA (1&2) directed to AKT transcript as described in methodology. β-ACTIN was used as an input control for cell lysate. For WB analysis, soluble whole cell extracts were run on an SDS-PAGE and immunoblotted as described in materials methodology. The sizes of detected protein bands in kDa are shown on the left side. Note: #; non-transformed immortalized-cell line.\nWe next analyzed the effect of NPB on phosphorylation of hBAD at both Ser75 and Ser99 by western blot analysis in 25 carcinoma cell lines derived seven different types of cancer."}, "AKT": {"system": "AKT", "assay": "Western blot of pAKT (Ser473), AKT, pBAD (Ser99) and BAD in carcinoma cell lines", "format": "cell-based, human", "set-up": "dose or concentration left out as unconfirmed", "settings": "MCF7, Caov-3, Ishikawa, AsPC-1", "method": "as §1, with “5 μM each of AKT inhibitor (IV) and NPB was used to treat cells.” left out\nThe upstream AKT Ser/Thr kinase regulates the phosphorylation of hBAD at Ser99 [13]. We therefore determined whether NPB inhibits the phosphorylation of hBAD (Ser99) via modulation of the activity of AKT (as indicated by phosphorylation of Ser473) using western blot analysis. We observed no change in the levels of pAKT or levels of total AKT protein after exposure of four different carcinoma cells lines (MCF7, Caov-3, Ishikawa, and AsPC-1) to 10 μM NPB. […]"}, "[3]": {"settings": "control transfected carcinoma cell lines, vs vehicle"}},
  "data": [
    {"smiles": "O=C(NC1CCCC1)c1cccc(C(c2ccccc2O)N2CCN(c3cccc(Cl)c3Cl)CC2)c1", "note": "(centres unmarked) [NPB, N-cyclopentyl-3-((4-(2,3-dichlorophenyl)piperazin-1-yl)(2-hydroxyphenyl)methyl) benzamide]", "values": [
      {"measurement": "cell viability and caspase3/7 activity", "setting": "[1]; carcinoma cell lines with depleted expression of BAD", "result": "did not affect"},
      {"measurement": "BAD phosphorylation (Ser99)", "setting": "[1]; [3]", "result": "decreased"},
      {"measurement": "caspase 3/7 activity", "setting": "[1]; [3]", "result": "increased"},
      {"measurement": "cell viability", "setting": "[1]; [3]", "result": "decreased"},
      {"measurement": "phosphorylation of BAD at the Ser99 site", "setting": "[2]", "result": "largely inhibits"},
      {"measurement": "phosphorylation of hBAD at the Ser75 site", "setting": "[2]", "result": "no effect"},
      {"measurement": "BAD phosphorylation at the Ser99 site", "setting": "AKT", "result": "inhibition"},
      {"measurement": "levels of pAKT or total AKT protein", "setting": "AKT", "result": "no change"}
    ]}
  ]
}
